In the oligonucleotide strings, read from the 5' end, every base follows the letter of its sugar. An asterisk marks phosphorothioate; unmarked linkages are phosphodiester. Other units and linkages are bracketed, terminal groups are in braces. A string of capitals states the bases alone. {NAG37} = tridentate N-acetyl-galactosamine targeting ligand, structure (NAG37)s; [invAb] = inverted abasic unit; m = 2'-O-methyl; f = 2'-fluoro
Legend:
[1] = system: ANGPTL3 gene; assay: Example 4: serum triglycerides in mice; assay type: in vivo
Procedure: (§1) To assess the in vivo activity of ANGPTL3 RNAi agents that are designed to target additional positions on the ANGPTL3 gene, six- to eight-week-old female C57bl/6 mice were used. Pre-dose serum samples were taken at day −1 after a four hour fast. At day 1, each mouse was given a single subcutaneous administration of 200 μl containing either 1 mg/kg (mpk) or 0.5 mg/kg (mpk) of an ANGPTL3 RNAi agent in D5W (dextrose in 5% water), or control (D5W) with no RNAi agent, according to the dosing groups recited in Table 17.
(§2) Each of the RNAi agents included a modified sequence and an N-acetyl-galactosamine-containing targeting ligand conjugated to the 5′ terminal end of the sense strand. (See Tables 3, 4, and 5 for modified sequences and targeting ligand structures). The injections were performed between the skin and muscle (i.e. subcutaneous injections) into the loose skin over the neck and shoulder area. Three (3) mice in each group were tested (n=3). Serum was collected on days 8, 15, 22, 29, and day 43 (Groups 1-3, 9, and 11-13 only). Mice were fasted for four hours prior to each collection. ANGPTL3 protein levels in serum were measured by ELISA assay (R&D Systems), according to the manufacturer's recommendations. Triglycerides, high-density lipoprotein (HDL), and total cholesterol in serum were measured on a Cobas® Integra 400 (Roche Diagnostics), according to the manufacturer's recommendations.
(§3) The ANGPTL3 protein levels, triglyceride levels, HDL levels, and total cholesterol levels for each animal were normalized. For normalization, the level of ANGPTL3 protein, triglyceride, HDL, and total cholesterol, respectively, for each animal at a time point, was divided by the pre-treatment level of expression in that animal (in this case at day −1) to determine the ratio of expression “normalized to pre-treatment.” Expression at a specific time point was then normalized to the D5W control group by dividing the “normalized to pre-treatment” ratio for an individual animal by the mean “normalized to pretreatment” ratio of all mice in the D5W control group.

[2] = system: ANGPTL3 gene; assay: Example 7: serum total cholesterol in mice; assay type: in vivo, C57bl/6 mice; set-up: key: ratio: (level/pre-treatment day -1 level) ÷ mean of D5W control group
Procedure: (§4) To further assess the in vivo activity of additional ANGPTL3 RNAi agents that are designed to target position 304 on the ANGPTL3 gene, six- to eight-week-old female C57bl/6 mice were used. Pre-dose serum samples were taken at day −1 after a four hour fast. At day 1, each mouse was given a single subcutaneous administration of 200 μl containing 0.5 mg/kg (mpk) of an ANGPTL3 RNAi agent in D5W (dextrose in 5% water), or control (D5W) with no RNAi agent, according to the dosing groups recited in Table 31.
as §2, with “22,” for “22, 29,”, “29.” for “day 43 (Groups 1-3, 9, and 11-13 only).”, “Triglycerides, total cholesterol,” for “Triglycerides,”, “low-density lipoprotein (LDL)” for “total cholesterol”
(§5) The ANGPTL3 protein levels, triglyceride levels, total cholesterol levels, HDL levels, and LDL levels for each animal were normalized. For normalization, the level of ANGPTL3 protein, triglyceride, HDL, and total cholesterol, respectively, for each animal at a time point, was divided by the pre-treatment level of expression in that animal (in this case at day −1) to determine the ratio of expression “normalized to pre-treatment.” Expression at a specific time point was then normalized to the D5W control group by dividing the “normalized to pre-treatment” ratio for an individual animal by the mean “normalized to pretreatment” ratio of all mice in the D5W control group.

[3] = system: ANGPTL3 gene; assay: Example 7: serum HDL in mice; assay type: in vivo; set-up: key: ratio: (level/pre-treatment day -1 level) ÷ mean of D5W control group; details: 0.5 mg/kg single SC injection day 1, female C57bl/6 mice, n=3, ratio to D5W control
Procedure: as §4
as §2, with “22,” for “22, 29,”, “29.” for “day 43 (Groups 1-3, 9, and 11-13 only).”, “Triglycerides, total cholesterol,” for “Triglycerides,”, “low-density lipoprotein (LDL)” for “total cholesterol”
as §5

[4] = system: ANGPTL3 gene; assay: Example 7: serum LDL in mice; assay type: in vivo; set-up: key: ratio: (level/pre-treatment day -1 level) ÷ mean of D5W control group; details: 0.5 mg/kg single SC injection day 1, female C57bl/6 mice, n=3, ratio to D5W control
Procedure: as §4
as §2, with “22,” for “22, 29,”, “29.” for “day 43 (Groups 1-3, 9, and 11-13 only).”, “Triglycerides, total cholesterol,” for “Triglycerides,”, “low-density lipoprotein (LDL)” for “total cholesterol”
as §5

[5] = system: ANGPTL3 gene; assay: Example 3: serum triglycerides in mice; assay type: in vivo
Procedure: as §1, with “target” for “target additional”, “positions 921 and 922” for “positions”, “(mpk)” for “(mpk) or 0.5 mg/kg (mpk)”, “12.” for “17.”
as §2, with “Serum was collected on days 8, 15, 22, 29, and day 43 (Groups 1-3, 9, and 11-13 only).” left out
as §3

[6] = Day 8, 1.0 mg/kg single subcutaneous dose on day 1, female C57bl/6 mice
[7] = Day 15, 1.0 mg/kg single subcutaneous dose on day 1, female C57bl/6 mice
[8] = Day 22, 1.0 mg/kg single subcutaneous dose on day 1, female C57bl/6 mice
[9] = Day 29, 1.0 mg/kg single subcutaneous dose on day 1, female C57bl/6 mice
[10] = Day 43, 1.0 mg/kg single subcutaneous dose on day 1, female C57bl/6 mice
[11] = Day 8, 0.5 mg/kg single SC injection on day 1, n=3
[12] = Day 15, 0.5 mg/kg single SC injection on day 1, n=3
[13] = Day 22, 0.5 mg/kg single SC injection on day 1, n=3
[14] = Day 29, 0.5 mg/kg single SC injection on day 1, n=3

Substance | Avg TG (Average Triglycerides Normalized to Pre-Treatment and Control) [1, 6] | Avg TG (Average Triglycerides Normalized to Pre-Treatment and Control) [1, 7] | Avg TG (Average Triglycerides Normalized to Pre-Treatment and Control) [1, 8] | Avg TG (Average Triglycerides Normalized to Pre-Treatment and Control) [1, 9] | Avg TG (Average Triglycerides Normalized to Pre-Treatment and Control) [1, 10] | Avg Total Chol, normalized to pre-treatment and control [2, 11] | Avg Total Chol, normalized to pre-treatment and control [2, 12] | Avg Total Chol, normalized to pre-treatment and control [2, 13] | Avg Total Chol, normalized to pre-treatment and control [2, 14] | Avg HDL, normalized to pre-treatment and control ([3]; Day 8) | Avg HDL, normalized to pre-treatment and control ([3]; Day 15) | Avg HDL, normalized to pre-treatment and control ([3]; Day 22) | Avg HDL, normalized to pre-treatment and control ([3]; Day 29) | Avg LDL, normalized to pre-treatment and control ([4]; Day 8) | Avg LDL, normalized to pre-treatment and control ([4]; Day 15) | Avg LDL, normalized to pre-treatment and control ([4]; Day 22) | Avg LDL, normalized to pre-treatment and control ([4]; Day 29) | Avg TG (Average Triglycerides Normalized to Pre-Treatment and Control) [5, 6] | Avg TG (Average Triglycerides Normalized to Pre-Treatment and Control) [5, 7] | Avg TG (Average Triglycerides Normalized to Pre-Treatment and Control) [5, 8] | further results
AD05488: RNAi agent duplex: antisense AM07235-AS, sense AM07234-SS (antisense mU*fA*mC*fUmGfAmUfCmAfAmAfUmAfUmGfUmUfGmAfG*mC; sense {NAG37}*[invAb]*mGmCmUmCmAmAmCmAfUfAfUmUmUmGmAmUmCmAmGmUmA*[invAb]) | 0.624 | 0.795 | 0.837 | 0.721 | 0.901 | 0.802 | 0.810 | 0.810 | 0.906 | 0.783 | 0.793 | 0.780 | 0.886 | 0.953 | 0.825 | 0.860 | 1.055 |  |  |  | 
AD05308: RNAi agent duplex: antisense AM07003-AS, sense AM07002-SS (chain 1 mU*fG*mU*fUmGfAmAfUmUfAmAfUmGfUmCfCmAfUmGfG*mA; chain 2 {NAG37}*[invAb]*mUmCmCmAmUmGmGmAfCfAfUmUmAmAmUmUmCmAmAmCmA*[invAb]) | 0.749 | 1.164 | 1.152 | 1.021 | 0.994 | 0.756 | 0.814 | 0.896 | 0.927 | 0.750 | 0.791 | 0.846 | 0.905 | 0.710 | 0.801 | 0.933 | 1.047 | 0.952 | 0.749 | 0.854 | Avg TG (Average Triglycerides Normalized to Pre-Treatment and Control) [5, 9]: 1.009; Avg TG (Average Triglycerides Normalized to Pre-Treatment and Control) ([1]; Day 8, 0.5 mg/kg single subcutaneous dose on day 1, female C57bl/6 mice): 1.330; Avg TG (Average Triglycerides Normalized to Pre-Treatment and Control) ([1]; Day 15, 0.5 mg/kg single subcutaneous dose on day 1, female C57bl/6 mice): 1.598; Avg TG (Average Triglycerides Normalized to Pre-Treatment and Control) ([1]; Day 22, 0.5 mg/kg single subcutaneous dose on day 1, female C57bl/6 mice): 1.732; Avg TG (Average Triglycerides Normalized to Pre-Treatment and Control) ([1]; Day 29, 0.5 mg/kg single subcutaneous dose on day 1, female C57bl/6 mice): 1.446; Avg TG (Average Triglycerides Normalized to Pre-Treatment and Control) ([1]; Day 43, 0.5 mg/kg single subcutaneous dose on day 1, female C57bl/6 mice): 1.547
AD05307: RNAi agent duplex: antisense AM07001-AS, sense AM07000-SS (chain 1 mU*fU*mU*fGmAfAmUfUmAfAmUfGmUfCmCfAmUfGmGmG*mC; chain 2 {NAG37}*[invAb]*mGmCmCmCmAmUmGmGfAfCfAmUmUmAmAmUmUmCmAmAmA*[invAb]) |  |  |  |  |  |  |  |  |  |  |  |  |  |  |  |  |  | 0.786 | 0.692 | 0.903 | Avg TG (Average Triglycerides Normalized to Pre-Treatment and Control) [5, 9]: 0.852
AD05418: RNAi agent duplex: antisense AM07159-AS, sense AM07158-SS (antisense mU*fU*mU*fGmAfAmUfUmAfAmUfGmUfCmCfAmUfGmGfG*mU; sense {NAG37}*[invAb]*mAmCmCmCmAmUmGmGfAfCfAmUmUmAmAmUmUmCmAmAmA*[invAb]) | 0.858 | 1.065 | 1.079 | 0.980 | 0.892 | 0.950 | 0.878 | 0.926 | 1.023 | 0.907 | 0.857 | 0.910 | 1.048 | 1.160 | 0.928 | 0.950 | 1.131 | 0.718 | 0.791 | 0.855 | Avg TG (Average Triglycerides Normalized to Pre-Treatment and Control) [5, 9]: 0.881
